Reference: patent publication US12037583B2, “Compositions and methods for immunooncology” (Novartis AG, priority 2015, dated 2024)

Tested on: PDCD1
Experiment: NGS editing of PDCD1 by dgRNA in HEK cells stably expressing Cas9;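 further: dgRNA lipofected into Cas9-expressing HEK cells, lysed after 24 h, target amplicon sequenced, editing = reads carrying insertions or deletions as percent of all reads including wild type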
Assay type: cell-based, human
Settings: at least 3 experiments
Source text: Transfection of Cas9GFP-expressing HEK293 cells (HEK-293_Cas9GFP) was used for primary screening of target specific crRNAs. […] Selected crRNAs were chemically synthesized and delivered in a 96 well format. HEK-293-Cas9GFP cells were transfected with target crRNAs comprising a flagpole region of SEQ ID NO: 6607 in a 1:1 ratio with stock trRNA of SEQ ID NO: 6660. The transfection was mediated using lipofection technology according to manufacturer's protocol (DharmaFECT Duo, GE LifeSciences; or RNAiMax, LifeTechnologies). Transfected cells were lysed 24 h following lipofection and editing (e.g., cleavage) was detected within lysates with the T7E1 assay and/or next generation sequencing (NGS; below).
PCR primers were first designed around the target site, and the genomic area of interest PCR amplified. Additional PCR was performed according to manufacturer's protocols (Illumina) to add the necessary chemistry for sequencing. The amplicons were then sequenced on an Illumina MiSeq instrument. The reads were then aligned to the human reference genome (e.g., hg38) after eliminating those having low quality scores. From the resulting files containing the reads mapped to the reference genome (BAM files), reads which overlap the target region of interest were selected and the number of wild type reads versus the number of reads which contain an insertion or deletion was calculated. The editing percentage was then defined as the total number of reads with insertions or deletions over the total number of reads, including wild type. To determine the pattern of insertions and/or deletions that resulted from the edit, the aligned reads with indels were selected and the number of a reads with a given indel were summed.
Editing of CRISPR systems containing dgRNA molecules comprising targeting domains to sequences of PDCD1 were tested for editing in HEK (gRNA delivered to cells stably expressing Cas9) and CD3+ T cells (gRNA and Cas9 delivered as RNP) according to the methods described herein.
All mean editing % are as measured by NGS and are based on at least 3 experiments.

| Substance | HEK (NGS) % Editing Mean [%] |
| --- | --- |
| CR000858: dgRNA targeting domain to PDCD1 (guide CAGCUUGUCCGUCUGGUUGC; targeting domain within dual guide RNA, chemistry not given here, further chemistry not given here; listed as Homo sapiens) | 16 |
| CR000863: dgRNA targeting domain to PDCD1 (guide CCGGGCUGGCUGCGGUCCUC; targeting domain within dual guide RNA, chemistry not given here, further chemistry not given here; listed as Homo sapiens) | 40 |
| CR000864: dgRNA targeting domain to PDCD1 (guide CCCGAGGACCGCAGCCAGCC; targeting domain within dual guide RNA, chemistry not given here, further chemistry not given here; listed as Homo sapiens) | 7 |
| CR000865: dgRNA targeting domain to PDCD1 (guide GCCGGGCUGGCUGCGGUCCU; targeting domain within dual guide RNA, chemistry not given here, further chemistry not given here; listed as Homo sapiens) | 4 |
| CR000866: dgRNA targeting domain to PDCD1 (guide CGGAAGCGGCAGUCCUGGCC; targeting domain within dual guide RNA, chemistry not given here, further chemistry not given here; listed as Homo sapiens) | 4 |
| CR000867: dgRNA targeting domain to PDCD1 (guide ACGGAAGCGGCAGUCCUGGC; targeting domain within dual guide RNA, chemistry not given here, further chemistry not given here; listed as Homo sapiens) | 24 |
| CR000868: gRNA targeting domain to PDCD1, UGACACGGAAGCGGCAGUCC (SEQ ID NO: 5764) (targeting domain within guide RNA, chemistry not given here, further chemistry not given here; listed as Homo sapiens) | 47 |
| CR000869: dgRNA targeting domain to PDCD1 (guide GCAGUUGUGUGACACGGAAG; targeting domain within dual guide RNA, chemistry not given here, further chemistry not given here; listed as Homo sapiens) | 55 |
| CR000870: dgRNA targeting domain to PDCD1 (guide CGUGUCACACAACUGCCCAA; targeting domain within dual guide RNA, chemistry not given here, further chemistry not given here; listed as Homo sapiens) | 66 |
| CR000871: dgRNA targeting domain to PDCD1 (guide GUGUCACACAACUGCCCAAC; targeting domain within dual guide RNA, chemistry not given here, further chemistry not given here; listed as Homo sapiens) | 57 |
| CR000872: dgRNA targeting domain to PDCD1 (guide AUGUGGAAGUCACGCCCGUU; targeting domain within dual guide RNA, chemistry not given here, further chemistry not given here; listed as Homo sapiens) | 26 |
| CR000874: dgRNA targeting domain to PDCD1 (guide GCGUGACUUCCACAUGAGCG; targeting domain within dual guide RNA, chemistry not given here, further chemistry not given here; listed as Homo sapiens) | 47 |
| CR000875: dgRNA targeting domain to PDCD1 (guide ACUUCCACAUGAGCGUGGUC; targeting domain within dual guide RNA, chemistry not given here, further chemistry not given here; listed as Homo sapiens) | 6 |
| CR000877: dgRNA targeting domain to PDCD1 (guide GGGCCCUGACCACGCUCAUG; targeting domain within dual guide RNA, chemistry not given here, further chemistry not given here; listed as Homo sapiens) | 5 |
| CR000878: dgRNA targeting domain to PDCD1 (guide ACAUGAGCGUGGUCAGGGCC; targeting domain within dual guide RNA, chemistry not given here, further chemistry not given here; listed as Homo sapiens) | 1 |
| CR000879: dgRNA targeting domain to PDCD1 (guide AGGGCCCGGCGCAAUGACAG; targeting domain within dual guide RNA, chemistry not given here, further chemistry not given here; listed as Homo sapiens) | 68 |

| Substance | HEK (NGS) % Editing Mean [%] |
| --- | --- |
| CR000880: dgRNA targeting domain to PDCD1 (guide GGUGCCGCUGUCAUUGCGCC; targeting domain within dual guide RNA, chemistry not given here, further chemistry not given here; listed as Homo sapiens) | 10 |
| CR000881: gRNA targeting domain to PDCD1, AGGUGCCGCUGUCAUUGCGC (SEQ ID NO: 5777) (targeting domain within guide RNA, chemistry not given here, further chemistry not given here; listed as Homo sapiens) | 21 |
| CR000882: dgRNA targeting domain to PDCD1 (guide GACAGCGGCACCUACCUCUG; targeting domain within dual guide RNA, chemistry not given here, further chemistry not given here; listed as Homo sapiens) | 50 |
| CR000883: dgRNA targeting domain to PDCD1 (guide ACAGCGGCACCUACCUCUGU; targeting domain within dual guide RNA, chemistry not given here, further chemistry not given here; listed as Homo sapiens) | 9 |
| CR000884: dgRNA targeting domain to PDCD1 (guide CCAGGGAGAUGGCCCCACAG; targeting domain within dual guide RNA, chemistry not given here, further chemistry not given here; listed as Homo sapiens) | 59 |
| CR000885: dgRNA targeting domain to PDCD1 (guide GAUCUGCGCCUUGGGGGCCA; targeting domain within dual guide RNA, chemistry not given here, further chemistry not given here; listed as Homo sapiens) | 10 |
| CR000886: dgRNA targeting domain to PDCD1 (guide UGAUCUGCGCCUUGGGGGCC; targeting domain within dual guide RNA, chemistry not given here, further chemistry not given here; listed as Homo sapiens) | 2 |
| CR000887: dgRNA targeting domain to PDCD1 (guide CUCUUUGAUCUGCGCCUUGG; targeting domain within dual guide RNA, chemistry not given here, further chemistry not given here; listed as Homo sapiens) | 46 |
| CR000888: dgRNA targeting domain to PDCD1 (guide UCUCUUUGAUCUGCGCCUUG; targeting domain within dual guide RNA, chemistry not given here, further chemistry not given here; listed as Homo sapiens) | 4 |
| CR000889: dgRNA targeting domain to PDCD1 (guide CUCUCUUUGAUCUGCGCCUU; targeting domain within dual guide RNA, chemistry not given here, further chemistry not given here; listed as Homo sapiens) | 3 |
| CR000890: dgRNA targeting domain to PDCD1 (guide GCUCUCUUUGAUCUGCGCCU; targeting domain within dual guide RNA, chemistry not given here, further chemistry not given here; listed as Homo sapiens) | 5 |
| CR000891: dgRNA targeting domain to PDCD1 (guide CGCAGAUCAAAGAGAGCCUG; targeting domain within dual guide RNA, chemistry not given here, further chemistry not given here; listed as Homo sapiens) | 29 |
| CR000892: dgRNA targeting domain to PDCD1 (guide GCAGAUCAAAGAGAGCCUGC; targeting domain within dual guide RNA, chemistry not given here, further chemistry not given here; listed as Homo sapiens) | 45 |
| CR000893: dgRNA targeting domain to PDCD1 (guide AGAGCCUGCGGGCAGAGCUC; targeting domain within dual guide RNA, chemistry not given here, further chemistry not given here; listed as Homo sapiens) | 10 |
| CR000894: dgRNA targeting domain to PDCD1 (guide AGGGUUUGGAACUGGCCGGC; targeting domain within dual guide RNA, chemistry not given here, further chemistry not given here; listed as Homo sapiens) | 19 |
